Legend:
IOP [1] = assay: Ocular hypotensive effect after instillation, alone or in combination, in rabbits (change from initial IOP); assay type: in vivo, Japanese white rabbits; settings: male JW rabbits, brinzolamide 1%, 50 μL; for persistence of ocular hypotensive action (FIG. 1): after 3 or 4 hours from instillation, 0.5% solution; for persistence of ocular hypotensive action (FIG. 2): after 4 and also 5 hours from instillation, 1.5% solution
Description: To examine usefulness of combination use of a Rho kinase inhibitor and a carbonic anhydrase inhibitor, the ocular hypotensive effects were compared by administering either of these drugs alone or both in combination to laboratory animals. (S)-(−)-1-(4-fluoro-5-isoquinolinesulfonyl)-2-methyl-1,4-homopiperazine-hydrochloride dihydrate was dissolved in physiological saline, and the solution was neutralized (pH 6.0) by adding sodium dihydrogenphosphate and sodium hydroxide to prepare a (S)-(−)-1-(4-fluoro-5-isoquinolinesulfonyl)-2-methyl-1,4-homopiperazine solution at a desired concentration. The commercially available “Eril® S Injection” (Asahi Kasei Pharma) was used as it was. The commercially available “Azopt® Ophthalmic Suspension 1%” (Alcon Japan Ltd.) was used as it was. The ocular hypotensive effect was examined after the combination use of (S)-(−)-1-(4-fluoro-5-isoquinolinesulfonyl)-2-methyl-1,4-homopiperazine and brinzolamide. As a control, the ocular hypotensive effect was also examined after the use of brinzolamide alone or (S)-(−)-1-(4-fluoro-5-isoquinolinesulfonyl)-2-methyl-1,4-homopiperazine alone. Similarly, the ocular hypotensive effect was examined after the combination use of hexahydro-1-(5-isoquinolinesulfonyl)-1H-1,4-diazepine and brinzolamide. As a control, the ocular hypotensive effect was also examined after the use of brinzolamide alone or hexahydro-1-(5-isoquinolinesulfonyl)-1H-1,4-diazepine alone. (S)-(−)-1-(4-fluoro-5-isoquinolinesulfonyl)-2-methyl-1,4-homopiperazine solution: 0.5% solution (instillation volume, 50 μL) Hexahydro-1-(5-isoquinolinesulfonyl)-1H-1,4-diazepine solution: fasudil hydrochloride hydrate injection (1.5% solution [trade name: Eril® S Injection]; instillation volume, 50 μL) Brinzolamide solution: brinzolamide ophthalmic solution ([trade name: Azopt® Ophthalmic Suspension 1%]; instillation volume, 50 μL) Laboratory animals: Japanese white rabbits (male JW rabbits, 5 animals per group) 1). One drop of 0.4% oxybuprocaine hydrochloride ophthalmic solution (trade name: Benoxil Ophthalmic Solution 0.4%) was instilled in both eyes of the laboratory animals for local anesthesia (only data for the instilled eyes are shown). 2) IOP was measured immediately before administration of the test compound solution as the initial IOP. 3) The brinzolamide solution was instilled in one eye of the laboratory animals, followed by the instillation of (S)-(−)-1-(4-fluoro-5-isoquinolinesulfonyl)-2-methyl-1,4-homopiperazine solution in the same eye. 4) At 1 hour, 2 hours, 3 hours, 4 hours, and 5 hours after the instillation of both drugs, one drop each of 0.4% oxybuprocaine hydrochloride ophthalmic solution was instilled in both eyes for local anesthesia, and IOP was measured. […]

IOP [2] = settings: rabbits with normal IOP, cited from earlier work

Row | Compound | persistence of ocular hypotensive action (FIG. 1) (IOP [1]) | time after instillation from which IOP is lowered (IOP [2]) | maximum IOP reduction (IOP [2]; instillation, concentration of 0.1%) | persistence of ocular hypotensive action (FIG. 2) (IOP [1])
1 | C[C@H]1CNCCCN1S(=O)(=O)c1cccc2cncc(F)c12 [(S)-(−)-1-(4-fluoro-5-isoquinolinesulfonyl)-2-methyl-1,4-homopiperazine] | ocular hypotensive effect disappeared | – | – | –
2 | C[C@@H](N)c1ccc(C(=O)Nc2ccnc3[nH]ccc23)cc1 [Y-39983, 4-[(1R)-1-aminoethyl]-N-1H-pyrrolo[2,3-b]pyridin-4-ylbenzamide] | – | 1 h | 15 mmHg | –
3 | CCN[C@H]1CN(CCCOC)S(=O)(=O)c2sc(S(N)(=O)=O)cc21 [brinzolamide] | ocular hypotensive effect disappeared | – | – | ocular hypotensive effect disappeared
4 | O=S(=O)(c1cccc2cnccc12)N1CCCNCC1 [hexahydro-1-(5-isoquinolinesulfonyl)-1H-1,4-diazepine] | – | – | – | ocular hypotensive effect disappeared

— US8193193B2, “Agent for prevention or treatment of glaucoma” (Kowa Co., Ltd., priority 2005, dated 2012)
